Read-outs that look alike come from different tables or passages of the source.
Legend:
σ2 receptors = target: T1, σ2 receptors (Rattus norvegicus, UniProt Q5U3Y7); test: In vitro binding to σ2 receptors: inhibition of [3H]DTG binding to rat liver homogenates
T1 construct: from tissue; host or cells: rat liver homogenate (per the earlier reading's assay description)
T1 sequence (Q5U3Y7 1-176): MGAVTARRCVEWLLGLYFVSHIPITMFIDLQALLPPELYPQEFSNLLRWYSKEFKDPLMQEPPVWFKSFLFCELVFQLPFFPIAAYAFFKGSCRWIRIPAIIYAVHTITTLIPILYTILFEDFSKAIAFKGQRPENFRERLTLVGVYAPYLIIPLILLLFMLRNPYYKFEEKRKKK
Text: (§1) The ability to bind to sigma-1 or sigma-2 can be measured using methods currently known to those of skill in the art or using those techniques described in U.S. application Ser. No. 60/013717, filed Mar. 30, 1996; in U.S. application Ser. No. 09/142935, filed Sep. 17, 1998; or in U.S. application Ser. No. 09/528398, filed Mar. 20, 2000.

σ1 receptors = target: T2, σ1 receptors (Cavia porcellus, UniProt Q60492); test: In vitro binding to σ1 receptors: inhibition of [3H](+)-pentazocine binding to guinea pig brain homogenates
T2 construct: from tissue; host or cells: guinea pig brain homogenate (per the earlier reading's assay description)
Text: as §1

[1] = Table I, guinea pig brain homogenates (n = 3-5), read-out: σ1: Ki for inhibition of the binding of [3H](+)-pentazocine
[2] = Table II, footnote a not given, read-out: σ1 (binding to σ1 receptors)
[3] = Table II, footnote b not given, read-out: σ2 (binding to σ2 receptors)

T2 sequence (Q60492 whole entry): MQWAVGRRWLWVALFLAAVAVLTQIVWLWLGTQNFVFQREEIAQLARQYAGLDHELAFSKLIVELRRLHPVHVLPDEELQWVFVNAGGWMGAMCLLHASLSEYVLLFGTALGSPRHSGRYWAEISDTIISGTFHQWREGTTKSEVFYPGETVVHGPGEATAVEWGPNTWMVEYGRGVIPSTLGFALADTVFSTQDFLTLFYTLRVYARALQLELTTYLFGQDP

Compound	Ki (σ2 receptors)	Ki (σ1 receptors)	Ki (σ1 receptors; [1])	Ki (σ1 receptors; [2])	Ki (σ2 receptors; [3])
COc1ccc(C)cc1NC(=O)OC1CC2CCCC(C1)N2CCCc1ccc(N)cc1 (stereo not shown)	0.0105 µM				
COc1ccc(C)cc1NC(=O)OC1CC2CCCC(C1)N2C/C=C/c1ccc(N)cc1 (stereo not shown)	0.0036 µM				
COc1ccc(C)cc1NC(=O)OC1CC2CCCC(C1)N2CCc1ccccc1 (stereo not shown) [Compound 6a]	0.0012 ± 0.0001 µM	0.0599 ± 0.0046 µM			
COc1ccc(C)cc1NC(=O)OC1CC2CCCC(C1)N2CCCc1ccccc1 (stereo not shown) [Compound 6b]	0.00197 ± 0.00012 µM	0.0729 ± 0.0016 µM			
COc1ccc(C)cc1NC(=O)OC1CC2CCCC(C1)N2CCCCc1ccccc1 (stereo not shown) [Compound 6c]	0.00292 ± 0.00021 µM	0.0655 ± 0.0043 µM			
COc1ccc(C)cc1NC(=O)OC1CC2CCCC(C1)N2CCCCCc1ccccc1 (stereo not shown) [Compound 6d]	0.00182 ± 0.00019 µM	0.0173 ± 0.0012 µM			
COc1ccc(C)cc1NC(=O)OC1CC2CCCC(C1)N2CCCCCCc1ccccc1 (stereo not shown) [Compound 6e]	0.00761 ± 0.00041 µM		0.214 ± 0.0235 µM		
COc1ccc(C)cc1NC(=O)OC1CC2CCCC(C1)N2CCCCCCCc1ccccc1 (stereo not shown) [Compound 6f]	0.0076 ± 0.00018 µM		0.23 ± 0.0286 µM		
COc1ccc(C)cc1NC(=O)OC1CC2CCCC(C1)N2CCc1ccc(I)cc1 (stereo not shown) [Compound 7a]				0.175 ± 0.00671 µM	0.141 ± 0.00836 µM
COc1ccc(C)cc1NC(=O)OC1CC2CCCC(C1)N2CCc1ccc(NC(=O)OC(C)(C)C)cc1 (stereo not shown) [Compound 7b]				> 1 µM	> 1 µM
COc1ccc(C)cc1NC(=O)OC1CC2CCCC(C1)N2CCc1ccc(N)cc1 (stereo not shown) [Compound 7c]	0.00778 ± 0.00061 µM			> 1 µM	
COc1ccc(C)cc1NC(=O)OC1CC2CCCC(C1)N2Cc1ccccc1 (stereo not shown) [—, reference compound]	0.00306 ± 0.00083 µM	0.0925 ± 0.011 µM			
